According to article PMC7419507, “In vitro Cas9-assisted editing of modular polyketide synthase genes to produce desired natural product derivatives” (Nature Communications, 2020):
Values joined by “and” are separate entries in the source; they are usually repeats but may differ in a detail not shown here. Equal entries are not always repeated.

How the values were obtained:
Format in all cases: cell-based
FKBP12 and mTOR = target: T1, FKBP12 and mTOR (Homo sapiens, UniProt P42345+P62942); experiment: Fluoppi analysis: induction of FKBP12-mTOR complex formation in transfected HeLa cells; settings: for Foci intensity: raw data, one replicate per line
T1 construct: host or cells: HeLa cells
T1 sequence (P42345 2025-2114 limits assumed): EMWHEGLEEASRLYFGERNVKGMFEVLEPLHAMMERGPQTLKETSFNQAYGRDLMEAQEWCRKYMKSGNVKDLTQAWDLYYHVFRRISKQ
T1 sequence (P62942 whole entry): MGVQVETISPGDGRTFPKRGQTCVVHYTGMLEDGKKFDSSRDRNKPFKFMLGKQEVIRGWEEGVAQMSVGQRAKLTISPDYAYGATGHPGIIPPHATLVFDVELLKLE
Protocol: Fluoppi harbours a tetrameric fluorescent protein hAG tag and an oligomeric assembly helper Ash tag to create detectable fluorescent foci in cells when there are interactions between two proteins fused to each tag[32].
HeLa cells were maintained in DMEM (Fujifilm Wako, Osaka, Japan) supplemented with 10% FBS (Thermo Fisher Scientific, MA, USA) and 1% of Penicillin-Streptomycin (Thermo Fisher Scientific) in a humidified incubator with 5% CO2 at 37 °C. Harvested cells were plated at 1 × 10^6 cells/well in 6-well plate and incubated for 6 h. Then each 1.25 µg of phAG-mTOR and pAsh-FKBP12 (Medical and Biological Laboratories Co., Ltd., Aichi, Japan) was co-transfected with Lipofectamine 2000 reagent (Thermo Fisher Scientific) overnight. Next day, transfected cells were harvested and seeded in 384-well optical-bottom microplate (PerkinElmer, MA, USA) at a density of 3000 cells/well. After the 24 h incubation at 37 °C, cells were treated with different concentrations of compounds for 1 h. Cells were then fixed with 4% paraformaldehyde and stained with 1 µg/ml of Hoechst33342 (Thermo Fisher Scientific). Cell images of 9 visual fields/well were acquired with ×20 objective lens in Opera Phenix High-Content Screening System (PerkinElmer) and analysed by Harmony4.9 software (PerkinElmer). Because protein-protein interactions are quantified by measuring the aggregation of fluorescent elements in foci, fluorescent intensity in foci was normalised by total fluorescent intensity in each cell. EC50 values were calculated using TIBCO Spotfire 10.3 software (PerkinElmer).

T lymphoma Jurkat cells = experiment: Cytotoxicity assay (CellTiter-Glo, 72 h), Jurkat; settings: raw data (replicates)
Protocol: (§1) Jurkat cells were cultured in RPMI1640 medium supplemented with 10% foetal bovine serum, penicillin (50 U/ml), streptomycin (50 μg/ml), and Glutamax. SKOV-3 cells were cultured in DMEM medium supplemented with 10% fetal bovine serum, penicillin (50 U/ml), and streptomycin (50 μg/ml). MESO-1 cells were cultured in RPMI1640 medium supplemented with 10% fetal bovine serum, penicillin (50 U/ml), and streptomycin (50 μg/ml). All cell lines were seeded in a 384-well plate at a density of 1000 cells/well in 20 μl of media and incubated at 37 °C in a humidified incubator with 5% CO2. After 4 h, 2-fold dilution samples resolved in DMSO were added to the cell culture at the concentration of 0.5% (0.1 μl) and incubated for 72 h. Cell viabilities were measured using a CellTiter-Glo luminescent cell viability assay and EnVision multilabel plate reader.

[1] = tested on: human ovarian adenocarcinoma SKOV-3 cells; experiment: Cytotoxicity assay (CellTiter-Glo, 72 h), SKOV-3; settings: raw replicate data
Protocol: as §1

[2] = tested on: malignant pleural mesothelioma MESO-1 cells; experiment: Cytotoxicity assay (CellTiter-Glo, 72 h), MESO-1; settings: raw replicate data
Protocol: as §1

[3] = tested on: Jurkat, SKOV-3 and MESO-1 cells; experiment: Cytotoxicity assay, statements for all tested cell lines together
Protocol: as §1

COC1CC2CCC(C)C(O)(O2)C(=O)C(=O)N2CCCCC2C(=O)OC(C(C)CC2CCC(O)C(OC)C2)CC=C(C)C(O)CC(=O)C(C)CC(C)C=CC=CC=C1C (stereo not drawn) [Compound 10]
PPI-inducing (binding enhancing) activity between FKBP12 and mTOR compared with rapamycin (1), in words (FKBP12 and mTOR; Fluoppi): relatively weaker activities
EC50 (FKBP12 and mTOR; Fluoppi, HeLa cells, 1 h treatment, three independent biological replicates, read-out: EC50, induction of the formation of FKBP-mTOR complex): 21 nM
Foci intensity (FKBP12 and mTOR; conc 9.53674e-5 uM): 0.02938 and 0.02062 and 0.01935
Foci intensity (FKBP12 and mTOR; conc 0.000190735 uM): 0.01089 and 0.04735 and 0.006372
Foci intensity (FKBP12 and mTOR; conc 0.00038147 uM): 0.02158 and 0.01349 and 0.009009
Foci intensity (FKBP12 and mTOR; conc 0.000762939 uM): 0.009136 and 0.02959 and 0.01473
Foci intensity (FKBP12 and mTOR; conc 0.00152588 uM): 0.01663 and 0.006313 and 0.01798
Foci intensity (FKBP12 and mTOR; conc 0.00305176 uM): 0.01047 and 0.01326 and 0.01713
Foci intensity (FKBP12 and mTOR; conc 0.00610352 uM): 0.03111 and 0.03528 and 0.05091
Foci intensity (FKBP12 and mTOR; conc 0.012207 uM): 0.1191 and 0.0902 and 0.07426
Foci intensity (FKBP12 and mTOR; conc 0.0244141 uM): 0.2308 and 0.2676 and 0.239
Foci intensity (FKBP12 and mTOR; conc 0.0488281 uM): 0.3046 and 0.3291 and 0.3775
Foci intensity (FKBP12 and mTOR; conc 0.0976562 uM): 0.4136 and 0.3574 and 0.3612
Foci intensity (FKBP12 and mTOR; conc 0.195312 uM): 0.3726 and 0.4258 and 0.4147
Foci intensity (FKBP12 and mTOR; conc 0.390625 uM): 0.4457 and 0.3806 and 0.4256
Foci intensity (FKBP12 and mTOR; conc 0.78125 uM): 0.3848 and 0.4238 and 0.4902
Foci intensity (FKBP12 and mTOR; conc 1.5625 uM): 0.4004 and 0.3924 and 0.3797
Foci intensity (FKBP12 and mTOR; conc 3.125 uM): 0.374 and 0.3995 and 0.4137
Foci intensity (FKBP12 and mTOR; conc 6.25 uM): 0.4751 and 0.3772 and 0.3106
Foci intensity (FKBP12 and mTOR; conc 12.5 uM): 0.4864 and 0.3577 and 0.3572
Foci intensity (FKBP12 and mTOR; conc 25 uM): 0.403 and 0.3428 and 0.3243
Foci intensity (FKBP12 and mTOR; conc 50 uM): 0.4648 and 0.4194 and 0.3824
Jurkat viability (%) (T lymphoma Jurkat cells; conc 9.53674e-5 uM): 100.6% and 99.4% and 103.1%
Jurkat viability (%) (T lymphoma Jurkat cells; conc 0.000190735 uM): 101.6% and 102.5% and 98.5%
Jurkat viability (%) (T lymphoma Jurkat cells; conc 0.00038147 uM): 98.4% and 99.9%
Jurkat viability (%) (T lymphoma Jurkat cells; conc 0.000762939 uM): 100.1% and 103.3% and 99.4%
Jurkat viability (%) (T lymphoma Jurkat cells; conc 0.00152588 uM): 103.7% and 95.3% and 102.7%
Jurkat viability (%) (T lymphoma Jurkat cells; conc 0.00305176 uM): 99.4% and 102.2% and 96.7%
Jurkat viability (%) (T lymphoma Jurkat cells; conc 0.00610352 uM): 103.1% and 102.2% and 98.6%
Jurkat viability (%) (T lymphoma Jurkat cells; conc 0.012207 uM): 106.4% and 103.4% and 103.7%
Jurkat viability (%) (T lymphoma Jurkat cells; conc 0.0244141 uM): 106.5% and 107.7% and 103.0%
Jurkat viability (%) (T lymphoma Jurkat cells; conc 0.0488281 uM): 101.8% and 99.9% and 103.2%
Jurkat viability (%) (T lymphoma Jurkat cells; conc 0.0976562 uM): 106.2% and 107.8% and 101.3%
Jurkat viability (%) (T lymphoma Jurkat cells; conc 0.195312 uM): 97.6% and 99.7% and 92.3%
Jurkat viability (%) (T lymphoma Jurkat cells; conc 0.390625 uM): 92.6% and 88.6% and 95.1%
Jurkat viability (%) (T lymphoma Jurkat cells; conc 0.78125 uM): 82.4% and 83.0% and 85.1%
Jurkat viability (%) (T lymphoma Jurkat cells; conc 1.5625 uM): 79.7% and 82.1% and 77.6%
Jurkat viability (%) (T lymphoma Jurkat cells; conc 3.125 uM): 74.2% and 71.9% and 69.9%
Jurkat viability (%) (T lymphoma Jurkat cells; conc 6.25 uM): 76.5% and 74.7% and 74.5%
Jurkat viability (%) (T lymphoma Jurkat cells; conc 12.5 uM): 63.4% and 64.1% and 59.5%
Jurkat viability (%) (T lymphoma Jurkat cells; conc 25 uM): 29.8% and 32.1% and 29.9%
Jurkat viability (%) (T lymphoma Jurkat cells; conc 50 uM): 2.7% and 3.5% and 3.4%
SKOV3 viability (%) ([1]; conc 9.53674e-5 uM): 102.2% and 102.6% and 104.7%
SKOV3 viability (%) ([1]; conc 0.000190735 uM): 89.9% and 100.2% and 100.4%
SKOV3 viability (%) ([1]; conc 0.00038147 uM): 103.4% and 105.0% and 103.9%
SKOV3 viability (%) ([1]; conc 0.000762939 uM): 100.5% and 98.4% and 99.4%
SKOV3 viability (%) ([1]; conc 0.00152588 uM): 106.0% and 105.3%
SKOV3 viability (%) ([1]; conc 0.00305176 uM): 103.5% and 101.1% and 97.3%
SKOV3 viability (%) ([1]; conc 0.00610352 uM): 103.4% and 105.6% and 104.9%
SKOV3 viability (%) ([1]; conc 0.012207 uM): 103.7% and 98.9% and 95.6%
SKOV3 viability (%) ([1]; conc 0.0244141 uM): 104.7% and 103.8% and 99.6%
SKOV3 viability (%) ([1]; conc 0.0488281 uM): 100.2% and 99.1% and 100.0%
SKOV3 viability (%) ([1]; conc 0.0976562 uM): 104.8% and 104.3% and 100.1%
SKOV3 viability (%) ([1]; conc 0.195312 uM): 95.4% and 97.0% and 94.0%
SKOV3 viability (%) ([1]; conc 0.390625 uM): 97.7% and 103.0% and 102.9%
SKOV3 viability (%) ([1]; conc 0.78125 uM): 93.0% and 94.9% and 92.8%
SKOV3 viability (%) ([1]; conc 1.5625 uM): 96.7% and 99.9% and 92.6%
SKOV3 viability (%) ([1]; conc 3.125 uM): 90.3% and 92.8% and 92.7%
SKOV3 viability (%) ([1]; conc 6.25 uM): 95.7% and 97.5% and 89.4%
SKOV3 viability (%) ([1]; conc 12.5 uM): 93.5% and 97.4% and 91.5%
SKOV3 viability (%) ([1]; conc 25 uM): 91.8% and 89.5% and 94.8%
SKOV3 viability (%) ([1]; conc 50 uM): 48.8% and 50.2% and 51.9%
MESO1 viability (%) ([2]; conc 9.53674e-5 uM): 100.8% and 105.3% and 105.4%
MESO1 viability (%) ([2]; conc 0.000190735 uM): 95.7% and 102.9% and 100.7%
MESO1 viability (%) ([2]; conc 0.00038147 uM): 104.6% and 103.5% and 110.6%
MESO1 viability (%) ([2]; conc 0.000762939 uM): 99.4% and 101.6% and 106.3%
MESO1 viability (%) ([2]; conc 0.00152588 uM): 103.6% and 107.9% and 110.6%
MESO1 viability (%) ([2]; conc 0.00305176 uM): 103.7% and 97.7% and 102.1%
MESO1 viability (%) ([2]; conc 0.00610352 uM): 102.5% and 110.7% and 106.5%
MESO1 viability (%) ([2]; conc 0.012207 uM): 100.1% and 112.2% and 102.4%
MESO1 viability (%) ([2]; conc 0.0244141 uM): 100.1% and 101.2% and 104.6%
MESO1 viability (%) ([2]; conc 0.0488281 uM): 99.1% and 97.8% and 101.7%
MESO1 viability (%) ([2]; conc 0.0976562 uM): 102.3% and 104.8% and 99.5%
MESO1 viability (%) ([2]; conc 0.195312 uM): 92.8% and 95.2% and 98.3%
MESO1 viability (%) ([2]; conc 0.390625 uM): 100.3% and 99.6% and 94.3%
MESO1 viability (%) ([2]; conc 0.78125 uM): 88.5% and 91.5% and 91.8%
MESO1 viability (%) ([2]; conc 1.5625 uM): 91.5% and 95.3% and 90.6%
MESO1 viability (%) ([2]; conc 3.125 uM): 85.5% and 90.0% and 83.9%
MESO1 viability (%) ([2]; conc 6.25 uM): 92.1% and 98.3% and 96.6%
MESO1 viability (%) ([2]; conc 12.5 uM): 90.4% and 90.6% and 90.0%
MESO1 viability (%) ([2]; conc 25 uM): 77.8% and 73.6% and 73.2%
MESO1 viability (%) ([2]; conc 50 uM): 53.8% and 51.9% and 42.0%
Concentration at which cytotoxic activities were shown ([3]; against the tested cell lines (Jurkat, SKOV-3, MESO-1)): over 10 µM

COc1cc([C@@H]2c3cc4c(cc3[C@@H](O[C@@H]3O[C@@H]5CO[C@@H](C)O[C@H]5[C@H](O)[C@H]3O)[C@H]3COC(=O)[C@H]23)OCO4)cc(OC)c1O [etoposide, reference compound]
Effect on cell viability, in words ([3]; Jurkat, SKOV-3 and MESO-1 cells, 72 h): typical cytotoxic activities
